# Assay results published in PubChem BioAssay (NCI).
# Where “and” joins values, the source holds several entries; their conditions need not be identical. Equal entries are not always repeated.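 In this assay, cells in 96-well plates receive the compound at five concentrations for 48 hours. Endpoints are linearly interpolated between the surrounding concentrations. GI50 = concentration required for 50% inhibition of growth. TGI is the concentration that stops growth completely.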
# Key:
# Experiment in all cases: growth of human tumour cells (NCI), 48 h
# MDA-MB-468 breast = tested on: MDA-MB-468 breast
# OVCAR-5 ovarian = tested on: OVCAR-5 ovarian
# SK-MEL-28 melanoma = tested on: SK-MEL-28 melanoma
# ACHN renal = tested on: ACHN renal
# RXF 393 renal = tested on: RXF 393 renal
# HL-60(TB) leukemia = tested on: HL-60(TB) leukemia
# HS 578T breast = tested on: HS 578T breast
# SNB-75 CNS = tested on: SNB-75 CNS
# NCI/ADR-RES ovarian = tested on: NCI/ADR-RES ovarian
SMILES,GI50 (MDA-MB-468 breast),TGI (MDA-MB-468 breast),also measured
CNc1ccc(-c2cc(=O)oc3ccc(Cl)cc23)cc1,219 nM and 84.1 nM,926 nM and 877 nM,–
COc1ccc(/C=C/c2n(Cc3ccc4ccccc4c3)c3ccccc3[n+]2Cc2ccc3ccccc3c2)cc1,–,–,GI50 (OVCAR-5 ovarian): 828 nM; TGI (OVCAR-5 ovarian): 2110 nM; GI50 (SK-MEL-28 melanoma): 818 nM; TGI (SK-MEL-28 melanoma): 2080 nM; GI50 (ACHN renal): 1120 nM; TGI (ACHN renal): 2320 nM; GI50 (RXF 393 renal): 377 nM; TGI (RXF 393 renal): 1590 nM; GI50 (HL-60(TB) leukemia): 268 nM; TGI (HL-60(TB) leukemia): 993 nM; GI50 (HS 578T breast): 583 nM; TGI (HS 578T breast): 2850 nM; GI50 (SNB-75 CNS): 150 nM; TGI (SNB-75 CNS): 1480 nM; GI50 (NCI/ADR-RES ovarian): 2110 nM; TGI (NCI/ADR-RES ovarian): 5430 nM
COc1ccc(C2=C(c3cc(OC)c(OC)c(OC)c3)C(=O)CC2)cc1,67.3 nM,–,–
CC1=C(/C=C/C(C)=C/C=C/C(C)=C/C(=O)Nc2ccc(O)cc2)C(C)(C)CCC1,2220 nM,8410 nM,–
O=C1/C(=C/c2ccccc2)CCC/C1=C\c1ccccc1,3120 nM,19400 nM,–
CCCCN(CCCC)CCCN=c1nc2c(c(N)n1-c1ccccc1)c(=S)n(-c1ccccc1)c(=S)n2-c1ccccc1,218 nM,518 nM,–
OC(COc1cccc2ccccc12)CN1CCN(c2ccccc2)CC1 (configuration not stated),16600 nM,31100 nM,–
CC[CH2][Sn]([Cl])([Cl])[CH2]CC,1920 nM,6960 nM,–
COc1cc([C@@H]2c3cc4c(cc3[C@@H](O[C@@H]3O[C@@H]5CO[C@@H](c6cccs6)O[C@H]5[C@H](O)[C@H]3O)[C@H]3COC(=O)[C@H]23)OCO4)cc(OC)c1O,186 nM,537 nM,–
COC(=O)[C@@]1(C)CC[C@]2(C)CC[C@]3(C)C4=CC=C5C(=CC(=O)C(O)=C5C)[C@]4(C)CC[C@@]3(C)[C@@H]2C1,165 nM,359 nM,–
CCCN(CCC)CCCNC(=O)c1cc2c(-c3ccc(OC)c(OC)c3)nn(C)c2s1,14000 nM,34500 nM,–
COc1cc(C2CC(c3cc(C)ccc3C)=NN2c2ccc(S(=O)(=O)NC(=O)NCc3ccccc3)cc2)cc(OC)c1OC (configuration not stated),2320 nM,5530 nM,–
